In US9296725B2, “Heterocyclyl pyrimidine analogues as TYK2 inhibitors” (Cellzome Limited, priority 2012, dated 2016):
Like-named read-outs stand apart in the source and are kept apart here.

How the values were obtained:
JAK2 = target: T1, JAK2 (Homo sapiens, UniProt O60674); experiment: Kinobeads assay, JAK2 (competition binding in mixed Molt4/Ramos cell lysate, dot blot detection); settings: read-out: JAK2 Band (Kinobeads assay potency, IC50)
T1 construct: endogenous in cells; host or cells: Molt4 (ATCC CRL-1582) and Ramos (ATCC CRL-1596), mixed lysate 1:2
Procedure, shortened: (§1)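 JAK2 and TYK2 retained on Kinobeads (immobilized aminopyrido-pyrimidine ligand) from 1:2 Molt4:Ramos lysate (10 mg/mL) were quantified by antibody dot blot (Odyssey infrared) after 3 h cold incubation with compound. Nine-step 1:3 dilution series; IC50 calculated from curves.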

TYK2 = target: T2, TYK2 (Homo sapiens, UniProt P29597); experiment: Kinobeads assay, TYK2 (competition binding in mixed Molt4/Ramos cell lysate, dot blot detection)
T2 construct: endogenous in cells; host or cells: Molt4 (ATCC CRL-1582) and Ramos (ATCC CRL-1596), mixed lysate 1:2
Procedure, shortened: as §1

[1] = Kinobeads assay, Molt4/Ramos lysate, read-out: TYK2 Band (Kinobeads assay potency, IC50)

T1 sequence (O60674 whole entry): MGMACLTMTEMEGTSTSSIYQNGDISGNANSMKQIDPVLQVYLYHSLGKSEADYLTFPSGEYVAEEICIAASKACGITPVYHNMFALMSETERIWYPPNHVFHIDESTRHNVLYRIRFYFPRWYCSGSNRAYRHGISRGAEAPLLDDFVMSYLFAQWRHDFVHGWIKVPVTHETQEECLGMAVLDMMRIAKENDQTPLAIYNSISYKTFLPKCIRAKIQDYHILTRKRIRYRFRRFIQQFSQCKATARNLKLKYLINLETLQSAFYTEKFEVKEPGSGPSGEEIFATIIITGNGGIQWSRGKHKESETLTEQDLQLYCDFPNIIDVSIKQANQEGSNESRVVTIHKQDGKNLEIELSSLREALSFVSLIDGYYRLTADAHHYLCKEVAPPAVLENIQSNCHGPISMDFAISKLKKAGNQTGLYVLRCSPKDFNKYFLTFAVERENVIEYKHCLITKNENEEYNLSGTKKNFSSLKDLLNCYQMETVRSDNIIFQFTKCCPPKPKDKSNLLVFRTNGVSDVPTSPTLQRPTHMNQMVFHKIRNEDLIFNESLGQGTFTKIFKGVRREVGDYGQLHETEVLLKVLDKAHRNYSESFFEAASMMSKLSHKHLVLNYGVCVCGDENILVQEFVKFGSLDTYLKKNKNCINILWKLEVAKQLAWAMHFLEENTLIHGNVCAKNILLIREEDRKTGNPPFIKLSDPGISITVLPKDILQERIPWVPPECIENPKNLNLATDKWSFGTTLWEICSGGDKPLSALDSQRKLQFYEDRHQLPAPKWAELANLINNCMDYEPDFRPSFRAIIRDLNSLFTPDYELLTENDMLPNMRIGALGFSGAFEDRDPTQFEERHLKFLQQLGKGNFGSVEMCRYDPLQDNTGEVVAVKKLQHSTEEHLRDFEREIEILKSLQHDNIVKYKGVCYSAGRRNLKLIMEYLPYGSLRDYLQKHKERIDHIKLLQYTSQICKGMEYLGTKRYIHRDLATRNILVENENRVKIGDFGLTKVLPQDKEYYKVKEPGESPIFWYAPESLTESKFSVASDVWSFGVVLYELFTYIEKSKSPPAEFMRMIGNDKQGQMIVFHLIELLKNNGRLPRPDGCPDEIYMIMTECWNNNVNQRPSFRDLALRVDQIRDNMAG
T2 sequence (P29597 whole entry): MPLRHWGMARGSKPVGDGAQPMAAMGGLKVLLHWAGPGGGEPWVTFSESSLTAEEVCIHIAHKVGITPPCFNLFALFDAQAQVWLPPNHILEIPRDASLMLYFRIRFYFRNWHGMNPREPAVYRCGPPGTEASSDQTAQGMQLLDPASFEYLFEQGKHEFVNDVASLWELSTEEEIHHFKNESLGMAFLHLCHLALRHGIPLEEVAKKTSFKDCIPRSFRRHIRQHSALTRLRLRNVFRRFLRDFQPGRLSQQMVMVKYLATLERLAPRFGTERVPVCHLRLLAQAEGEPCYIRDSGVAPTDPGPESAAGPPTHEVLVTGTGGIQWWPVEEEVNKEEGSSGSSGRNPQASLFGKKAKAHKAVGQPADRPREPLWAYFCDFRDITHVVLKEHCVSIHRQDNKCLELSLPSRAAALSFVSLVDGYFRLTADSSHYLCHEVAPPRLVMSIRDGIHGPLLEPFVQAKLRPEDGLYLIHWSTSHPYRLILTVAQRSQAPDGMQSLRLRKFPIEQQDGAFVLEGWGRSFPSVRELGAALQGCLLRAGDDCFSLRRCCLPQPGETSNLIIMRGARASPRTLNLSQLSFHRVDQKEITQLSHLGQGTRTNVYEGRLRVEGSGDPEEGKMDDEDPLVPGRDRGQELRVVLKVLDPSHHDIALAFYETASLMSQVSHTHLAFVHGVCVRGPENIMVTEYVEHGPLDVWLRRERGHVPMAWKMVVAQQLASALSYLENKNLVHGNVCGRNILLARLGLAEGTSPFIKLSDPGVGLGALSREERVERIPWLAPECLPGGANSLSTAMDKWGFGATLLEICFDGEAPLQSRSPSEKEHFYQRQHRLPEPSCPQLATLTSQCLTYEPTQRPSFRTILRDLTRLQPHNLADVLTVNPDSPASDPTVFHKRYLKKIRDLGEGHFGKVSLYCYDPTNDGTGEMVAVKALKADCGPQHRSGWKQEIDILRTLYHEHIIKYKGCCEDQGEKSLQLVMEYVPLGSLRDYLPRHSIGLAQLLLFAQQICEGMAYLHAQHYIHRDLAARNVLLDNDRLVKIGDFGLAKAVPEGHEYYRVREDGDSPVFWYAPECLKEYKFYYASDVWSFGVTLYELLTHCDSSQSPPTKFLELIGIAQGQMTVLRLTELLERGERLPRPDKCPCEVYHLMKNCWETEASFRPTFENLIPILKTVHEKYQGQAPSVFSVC

SMILES | IC50 (JAK2) | IC50 (TYK2; [1]) | IC50 (TYK2; read-out: TYK2 IC50)
C[C@H](CO)NC(=O)Cn1cc(Nc2nccc(NCc3c(F)ccc(F)c3F)n2)cn1 [Example I-143] | 1000 to 10000 nM | 10 to 100 nM | 
O=C(Cn1cc(Nc2nccc(NCc3c(F)cccc3Cl)n2)cn1)N[C@@H]1C[C@@H]1F [Example I-142] | 1000 to 10000 nM | 10 to 100 nM | 
O=C(Cn1cc(Nc2ncc(Cl)c(NCc3ccccc3)n2)cn1)N1CC2CCC1CN2 (stereo not drawn) [Example I-194] | 100 to 1000 nM | 10 to 100 nM | 
NC(=O)Cn1cc(Nc2ncc(Cl)c(NCc3c(Cl)cccc3Cl)n2)cn1 [Example I-324] | 100 to 1000 nM | 10 to 100 nM | 
Cc1cnc(Nc2cnn(CC(=O)N[C@H](C)CO)c2)nc1NCc1c(F)cc(F)cc1F [Example I-35] | 100 to 1000 nM | ≤ 10 nM | 
Cn1cc(Nc2ncc(Cl)c(NCc3ccccc3F)n2)cn1 [Example I-173] | 100 to 1000 nM | 100 to 1000 nM | 
Cc1cnc(Nc2cnn(CC(F)F)c2)nc1NCc1c(F)ccc(F)c1F [Example I-87] | 100 to 1000 nM | 10 to 100 nM | 
NC(=O)Cn1cc(Nc2ncc(Cl)c(NCc3ccccc3CO)n2)cn1 [Example I-288] | 1000 to 10000 nM | 100 to 1000 nM | 
OCCn1cc(Nc2ncc(Cl)c(NCc3c(F)cccc3-c3cn[nH]c3)n2)cn1 [Example I-265] | 1000 to 10000 nM | 100 to 1000 nM | 
COc1c(F)cc(F)cc1CNc1nc(Nc2cnn(CC(=O)NC3CC3)c2)ncc1C [Example I-345] | 100 to 1000 nM | 10 to 100 nM | 
C[C@@H](O)Cn1cc(Nc2ncc(Cl)c(NCc3ccccc3F)n2)cn1 [Example I-256] | 1000 to 10000 nM | 100 to 1000 nM | 
COc1ccc(S(C)(=O)=O)cc1CNc1nc(Nc2cnn(CCO)c2)ncc1F [Example I-88] | 100 to 1000 nM | 10 to 100 nM | 
CC(C)N(C)C(=O)Cn1cc(Nc2nccc(NCc3c(F)cc(F)cc3F)n2)cn1 [Example I-317] | > 10000 nM | 10 to 100 nM | 
COc1ccc(F)c(CNc2ccnc(Nc3cnn(CC(=O)N4CCOCC4)c3)n2)c1F [Example I-117] | 1000 to 10000 nM | ≤ 10 nM | 
CC(NC(=O)Cn1cc(Nc2nccc(NCc3c(F)cc(F)cc3F)n2)cn1)C(F)F (stereo not drawn) [Example I-149] | > 10000 nM | 10 to 100 nM | 
Cc1cnc(Nc2cnn(CC(=O)O)c2)nc1NCc1c(F)cc(F)cc1F [Example I-306] | 1000 to 10000 nM | 10 to 100 nM | 
COc1ccc(F)c(CNc2nc(Nc3cnn(C)c3)ncc2C)c1F [Example I-302] | 100 to 1000 nM | 10 to 100 nM | 
CN(C)CCNC(=O)Cn1cc(Nc2ncc(Cl)c(NCc3cccc(OCC#N)c3)n2)cn1 [Example I-367] | 1000 to 10000 nM | 100 to 1000 nM | 
CC(C)Oc1cccc(CNc2nc(Nc3cnn(CCO)c3)ncc2Cl)c1 [Example I-334] | 1000 to 10000 nM | 100 to 1000 nM | 
Cn1cc(Nc2nccc(NCc3c(F)cc(F)cc3F)n2)cn1 [Example I-310] | > 10000 nM | 100 to 1000 nM | 
COc1ccc(F)c(CNc2nc(Nc3cnn(C)c3)ncc2F)c1F [Example I-383] | 1000 to 10000 nM | 10 to 100 nM | 
Cn1cc(Nc2ncc(Cl)c(NCc3cc(OC(F)F)ccc3F)n2)cn1 [Example I-412] | 1000 to 10000 nM | 10 to 100 nM | 
O=C(Cn1cc(Nc2nccc(NCc3c(F)cccc3Cl)n2)cn1)NCCF [Example I-140] | 1000 to 10000 nM | 10 to 100 nM | 
CCOC(=O)Cn1cc(Nc2ncc(Cl)c(NCc3ccccc3)n2)cn1 [Example I-225] | 1000 to 10000 nM | 100 to 1000 nM | 
OCCn1cc(Nc2ncc(Cl)c(NCc3ncccc3F)n2)cn1 [Example I-259] | 1000 to 10000 nM | 10 to 100 nM | 
NS(=O)(=O)c1cc(F)c(CNc2nc(Nc3cnn(CC(=O)N4CCCCC4)c3)ncc2F)c(F)c1 [Example I-31] | 1000 to 10000 nM | 10 to 100 nM | 
Fc1ccc(F)c(CNc2nc(Nc3cnn(C(F)F)c3)ncc2Cl)c1 [Example I-223] | 100 to 1000 nM | 100 to 1000 nM | 
CC(C)NC(=O)Cn1cc(Nc2nccc(NCc3c(F)cccc3F)n2)cn1 [Example I-62] | > 10000 nM | 10 to 100 nM | < 100 nM
